Reference: patent EP0908457B1, “3-(1,2-benzisothiazol- and isoxazol-5-Y1)-2,4(1H,3H)-pyrimidinedione or thione and 3-(1,2-benzisothiazol- and isoxazol-5-y1)-4(3H)-pyrimidinone or thione herbicidal agents” (BASF AKTIENGESELLSCHAFT, priority 1997, dated 1999)

Key:
[1] = system: Echinochloa oryzoides (Ard.) Fritsch.; assay: Preemergence weed control under flooded paddy conditions, ECHORC (Watergrass (Calif.)); assay type: in vivo; settings: preemergence, flooded paddy
[2] = system: Oryza sativa, (L.) Tebonnet; assay: Rice tolerance to post-transplant applications under flooded paddy conditions (Example 187), ORYSAT (Rice, Tebonnet)
[3] = system: Cyperus serotinus, Rottb.; assay: Preemergence weed control under flooded paddy conditions, CYPSE (Flatsedge); assay type: in vivo; settings: preemergence
Cyperus iria = assay: Preemergence weed control under flooded paddy conditions, CYPIR (Rice Flatsedge); assay type: in vivo; settings: preemergence, flooded paddy
Sagittaria pygmaea, L. = assay: Preemergence weed control under flooded paddy conditions, SAGPY (Arrowhead (Pygmaea)); assay type: in vivo; settings: preemergence, flooded paddy
[4] = system: Monochoria vaginalis, Presl.; assay: Preemergence weed control under flooded paddy conditions, MOOVA (Monochoria); assay type: in vivo; settings: preemergence, flooded paddy
[5] = Rate 0.0320 kg/ha, rated three to four weeks after treatment
[6] = Rate 0.0620 kg/ha, rated three to four weeks after treatment
[7] = Rate 0.1250 kg/ha, rated three to four weeks after treatment
[8] = Rate 0.2500 kg/ha, rated three to four weeks after treatment
[9] = Rate 0.0320 kg/ha, rated 3-4 weeks after treatment
[10] = Rate 0.0620 kg/ha, rated 3-4 weeks after treatment
[11] = Rate 0.1250 kg/ha, rated 3-4 weeks after treatment
[12] = Rate 0.2500 kg/ha, rated 3-4 weeks after treatment
Note: meaning of each grade not given here.

Compound: Cn1c(C(F)(F)F)cc(=O)n(-c2ccc3snc(COCc4ccc([N+](=O)[O-])cc4)c3c2)c1=O [Example 589, 2,4(1H,3H)-Pyrimidinedione, 1-methyl-3-{3-{[(p-nitrobenzyl)oxy]methyl}-1,2-benzisothiazol-5-yl}-6-(trifluoromethyl)-]
- herbicidal effect rating, ECHORC [1, 5]: 4.0
- herbicidal effect rating, ECHORC [1, 6]: 4.0
- herbicidal effect rating, ECHORC [1, 7]: 4.0
- herbicidal effect rating, ECHORC [1, 8]: 4.0
- herbicidal effect rating ORYSAT [2, 5]: 0.0
- herbicidal effect rating ORYSAT [2, 6]: 0.0
- herbicidal effect rating ORYSAT [2, 7]: 0.0
- herbicidal effect rating ORYSAT [2, 8]: 0.0
- herbicidal effect rating, CYPSE [3, 5]: 0.0
- herbicidal effect rating, CYPSE [3, 6]: 0.0
- herbicidal effect rating, CYPSE [3, 7]: 0.0
- herbicidal effect rating, CYPIR (Cyperus iria; [5]): 0.0
- herbicidal effect rating, CYPIR (Cyperus iria; [6]): 2.0
- herbicidal effect rating, CYPIR (Cyperus iria; [7]): 3.0
- herbicidal effect rating, CYPIR (Cyperus iria; [8]): 4.0
- herbicidal effect rating, SAGPY (Sagittaria pygmaea, L.; [5]): 0.0
- herbicidal effect rating, SAGPY (Sagittaria pygmaea, L.; [6]): 2.0
- herbicidal effect rating, SAGPY (Sagittaria pygmaea, L.; [7]): 2.0
- herbicidal effect rating, SAGPY (Sagittaria pygmaea, L.; [8]): 3.0
- herbicidal effect rating, MOOVA [4, 5]: 7.0
- herbicidal effect rating, MOOVA [4, 6]: 8.0
- herbicidal effect rating, MOOVA [4, 7]: 8.0
- herbicidal effect rating, MOOVA [4, 8]: 9.0

Compound: Cn1c(C(F)(F)F)cc(=O)n(-c2cc3c(C(Br)Br)nsc3cc2F)c1=O [Example 372, 2,4(1H,3H)-Pyrimidinedione, 3-[3-(dibromomethyl)-6-fluoro-1,2-benzisothiazol-5-yl]-1-methyl-6-(trifluoromethyl)-]
- herbicidal effect rating, ECHORC [1, 5]: 9.0
- herbicidal effect rating, ECHORC [1, 6]: 9.0
- herbicidal effect rating, ECHORC [1, 7]: 9.0
- herbicidal effect rating, ECHORC [1, 8]: 9.0
- herbicidal effect rating ORYSAT [2, 5]: 6.0
- herbicidal effect rating ORYSAT [2, 6]: 8.0
- herbicidal effect rating ORYSAT [2, 7]: 8.0
- herbicidal effect rating ORYSAT [2, 8]: 9.0
- herbicidal effect rating, CYPSE [3, 5]: 1.0
- herbicidal effect rating, CYPSE [3, 6]: 5.0
- herbicidal effect rating, CYPSE [3, 7]: 8.5
- herbicidal effect rating, CYPSE [3, 8]: 9.0
- herbicidal effect rating, CYPIR (Cyperus iria; [5]): 8.5
- herbicidal effect rating, CYPIR (Cyperus iria; [6]): 9.0
- herbicidal effect rating, CYPIR (Cyperus iria; [7]): 9.0
- herbicidal effect rating, CYPIR (Cyperus iria; [8]): 9.0
- herbicidal effect rating, SAGPY (Sagittaria pygmaea, L.; [5]): 8.5
- herbicidal effect rating, SAGPY (Sagittaria pygmaea, L.; [6]): 9.0
- herbicidal effect rating, SAGPY (Sagittaria pygmaea, L.; [7]): 9.0
- herbicidal effect rating, SAGPY (Sagittaria pygmaea, L.; [8]): 9.0
- herbicidal effect rating, MOOVA [4, 5]: 9.0
- herbicidal effect rating, MOOVA [4, 6]: 9.0
- herbicidal effect rating, MOOVA [4, 7]: 9.0
- herbicidal effect rating, MOOVA [4, 8]: 9.0

Compound: CON(C)C(=O)/C=C/c1nsc2ccc(-n3c(=O)cc(C(F)(F)F)n(C)c3=O)cc12 [Example 565, 1,2-Benzisothiazole-3-acrylamide, 5-[3,6-dihydro-3-methyl-2,6-dioxo-4-(trifluoromethyl)-1(2H)-pyrimidinyl]-N-methoxy-N-methyl-, (E)-]
- herbicidal effect rating, ECHORC [1, 9]: 0.0
- herbicidal effect rating, ECHORC [1, 10]: 0.0
- herbicidal effect rating, ECHORC [1, 11]: 0.0
- herbicidal effect rating, ECHORC [1, 12]: 0.0
- herbicidal effect rating ORYSAT [2, 9]: 0.0
- herbicidal effect rating ORYSAT [2, 10]: 0.0
- herbicidal effect rating ORYSAT [2, 11]: 2.0
- herbicidal effect rating ORYSAT [2, 12]: 3.0
- herbicidal effect rating, CYPSE [3, 9]: 0.0
- herbicidal effect rating, CYPSE [3, 10]: 0.0
- herbicidal effect rating, CYPSE [3, 11]: 0.0
- herbicidal effect rating, CYPSE [3, 12]: 0.0
- herbicidal effect rating, CYPIR (Cyperus iria; [9]): 0.0
- herbicidal effect rating, CYPIR (Cyperus iria; [10]): 3.0
- herbicidal effect rating, CYPIR (Cyperus iria; [11]): 6.0
- herbicidal effect rating, CYPIR (Cyperus iria; [12]): 6.0
- herbicidal effect rating, SAGPY (Sagittaria pygmaea, L.; [9]): 0.0
- herbicidal effect rating, SAGPY (Sagittaria pygmaea, L.; [10]): 0.0
- herbicidal effect rating, SAGPY (Sagittaria pygmaea, L.; [11]): 0.0
- herbicidal effect rating, SAGPY (Sagittaria pygmaea, L.; [12]): 0.0
- herbicidal effect rating, MOOVA [4, 9]: 9.0
- herbicidal effect rating, MOOVA [4, 10]: 9.0
- herbicidal effect rating, MOOVA [4, 11]: 9.0
- herbicidal effect rating, MOOVA [4, 12]: 9.0
